Results taken from ChEMBL document CHEMBL1138457, “Design and synthesis of an orally bioavailable and selective peptide epoxyketone proteasome inhibitor (PR-047)” (J Med Chem, 2009).
Converted amounts (≈) assume the structure as drawn.

Experiments:
[1] = Inhibition of chymotrypsin-like activity of human 20S proteasome by spectrofluorimetry
[2] = Inhibition of chymotrypsin-like activity of 20S proteasome in human MOLT4 cells after 1 hr by […]; assay type: cell-based; details: MOLT-4, 1 h
[3] = system: Mus musculus; test: Inhibition of chymotrypsin-like activity of 20S proteasome in BALB/c mouse adrenal gland 40 mg/kg, po after 1 hr; assay type: functional; parameters: scale not given: the % may be the effect or the level left
[4] = Cytotoxicity against human MESSA cells assessed as cell viability after 72 hrs by CellTiter-Glo luminescent assay; assay type: functional, cell-based; details: MES-SA
[5] = Cytotoxicity against multidrug resistance transporter expressing doxorubicin resistant human MESSA cells assessed as cell viability after 72 hrs by CellTiter-Glo luminescent assay; assay type: functional, cell-based; details: MES-SA
[6] = Solubility in ethanol-PS80 citrate buffer at pH 3.5 by HPLC analysis; assay type: physicochemical
[7] = Inhibition of chymotrypsin-like activity of human 20S proteasome beta 5 subunit by proteasome active site ELISA
[8] = Chemical stability in simulated intestinal fluid assessed as compound remaining at 4 uM after 15 mins; assay type: physicochemical; details: read-out: Stability
[9] = Metabolic stability in mouse liver microsomes assessed as extraction ratio at 1 uM; assay type: ADME, Microsome
[10] = Metabolic stability in human liver microsomes assessed as extraction ratio at 1 uM; assay type: ADME, Microsome
[11] = system: Mus musculus; test: Inhibition of chymotrypsin-like activity of 20S proteasome in BALB/c mouse adrenal gland at 10 mg/kg, po after 1 hr; assay type: functional; parameters: scale not given: the % may be the effect or the level left
[12] = molecular target: T1, Proteasome subunit beta type-8 (Homo sapiens, UniProt P28062)
T1 sequence (P28062 whole entry): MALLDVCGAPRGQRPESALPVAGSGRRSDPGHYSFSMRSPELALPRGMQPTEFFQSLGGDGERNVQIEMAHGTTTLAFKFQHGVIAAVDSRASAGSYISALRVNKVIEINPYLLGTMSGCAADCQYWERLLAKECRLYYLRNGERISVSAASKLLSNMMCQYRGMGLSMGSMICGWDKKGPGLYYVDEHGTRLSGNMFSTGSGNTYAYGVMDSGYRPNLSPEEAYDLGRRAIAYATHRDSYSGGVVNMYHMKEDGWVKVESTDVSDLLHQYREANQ
Description: Inhibition of chymotrypsin-like activity of LMP7 immunoproteasome by proteasome active site ELISA

[13] = system: Mus musculus; test: Inhibition of chymotrypsin-like activity of 20S proteasome in BALB/c mouse adrenal gland at 20 mg/kg, po after 1 hr; assay type: functional; parameters: scale not given: the % may be the effect or the level left
[14] = organism: Homo sapiens; test: Ratio of Kinact to Ki for chymotrypsin-like activity of human 26S proteasome by spectrophotometry; parameters: unit not given here

Row | Structure (SMILES) | IC50 [1] [nM] | IC50 [2] [nM] | Activity [3] [%] | IC50 [4] [nM] | IC50 [5] [nM] | solubility [6] [µg/mL] | IC50 [7] [nM] | remaining at 0.25 h, 4 µM [8] [%] | hepatic extraction ratio at 1 µM [9] [dimensionless ratio] | hepatic extraction ratio at 1 µM [10] [dimensionless ratio] | Activity [11] [%] | IC50 [12] [nM] | Activity [13] [%] | Ratio [14]
1 | CC(C)C[C@H](NC(=O)c1cc(Cn2cncn2)on1)C(=O)N[C@@H](Cc1ccccc1)C(=O)N[C@@H](CC(C)C)C(=O)[C@@]1(C)CO1 | 13 | 62 | 105 | 35 | > 1000 | ≥ 1000 |  |  |  |  |  |  |  | 
2 | COC[C@H](NC(=O)c1cc(C)on1)C(=O)N[C@@H](COC)C(=O)N[C@@H](Cc1ccccc1)C(=O)[C@@]1(C)CO1 | 24 | 35 |  | 17 | 155 |  | 11 | 90 | 0.59 | 0.59 | 43 | 21 |  | 
3 | COC[C@H](NC(=O)c1cc(C)on1)C(=O)N[C@@H](C)C(=O)N[C@@H](CC(C)C)C(=O)[C@@]1(C)CO1 | 19 | 57 |  | 28 | 276 | 1240 (≈ 2740 µM) |  | 100 | 0.48 | 0.28 |  |  | 8 | 
4 | COC[C@H](NC(=O)c1cc(OC)no1)C(=O)N[C@@H](COC)C(=O)N[C@@H](CC(C)C)C(=O)[C@@]1(C)CO1 | 11 | 32 |  | 12 | 82 |  | 23 | 35 | 0.37 | 0.4 | 21 | 22 |  | 
5 | COC[C@H](NC(=O)c1cc(C)on1)C(=O)N[C@H](C(=O)N[C@@H](CC(C)C)C(=O)[C@@]1(C)CO1)C(C)C | 44 | 147 |  | 57 | 636 |  |  | 95 | 0.79 | 0.63 |  |  | 12 | 
6 | COC[C@H](NC(=O)c1ccon1)C(=O)N[C@@H](COC)C(=O)N[C@@H](Cc1ccccc1)C(=O)[C@@]1(C)CO1 | 73 | 47 |  | 43 | 756 |  | 44 | 85 | 0.49 | 0.42 | 34 | 93 |  | 
7 | Cc1cc(C(=O)N[C@@H](Cc2cscn2)C(=O)N[C@@H](Cc2ccccc2)C(=O)N[C@@H](CC(C)C)C(=O)[C@@]2(C)CO2)no1 | 6.7 | 56 |  | 15 | 77 |  |  | 20 |  |  | 63 |  |  | 
8 | CC(C)C[C@H](NC(=O)c1cc(Cn2ccnc2)on1)C(=O)N[C@@H](Cc1ccccc1)C(=O)N[C@@H](CC(C)C)C(=O)[C@@]1(C)CO1 | 15 | 59 | 110 | 52 | > 1000 | ≥ 1000 |  |  |  |  |  |  |  | 
9 | COC[C@H](NC(=O)c1cc(C)on1)C(=O)N[C@@H](Cc1ccsc1)C(=O)N[C@@H](CC(C)C)C(=O)[C@@]1(C)CO1 | 9.2 | 46 |  | 25 | 181 |  |  | 90 | 0.95 | 0.87 |  |  | 117 | 
10 | CC(C)C[C@H](NC(=O)c1cc(CN2CCOCC2)on1)C(=O)N[C@@H](Cc1ccccc1)C(=O)N[C@@H](CC(C)C)C(=O)[C@@]1(C)CO1 | 4.1 | 11 | 29 | 22 | 70 | 1480 (≈ 2370 µM) |  | 60 |  |  |  |  |  | 28300
11 | CC(C)C[C@H](NC(=O)[C@H](Cc1ccccc1)NC(=O)c1cnccn1)B(O)O [BORTEZOMIB] |  |  |  |  |  |  | 8.7 |  |  |  |  |  |  | 
12 | Cc1cc(C(=O)N[C@@H](CC(C)C)C(=O)N[C@@H](Cc2ccccc2)C(=O)N[C@@H](CC(C)C)C(=O)[C@@]2(C)CO2)no1 | 1.8 | 17 |  | 28 | 47 | 60 (≈ 111 µM) |  | 60 |  |  |  |  |  | 50900
13 | CCOc1cc(C(=O)N[C@@H](COC)C(=O)N[C@@H](COC)C(=O)N[C@@H](CC(C)C)C(=O)[C@@]2(C)CO2)no1 | 3.1 | 35 |  | 5.4 | 66 |  | 9.3 | 70 | 0.69 | 0.69 | 4 | 41 |  | 
14 | CC(C)C[C@H](NC(=O)c1cc(CN2CCN(C)CC2)on1)C(=O)N[C@@H](Cc1ccccc1)C(=O)N[C@@H](CC(C)C)C(=O)[C@@]1(C)CO1 | 94 | 124 | 101 | 189 | > 1000 | ≥ 1000 |  | 40 |  |  |  |  |  | 
15 | COC[C@H](NC(=O)c1cc(C)on1)C(=O)N[C@@H](CC1CCCCC1)C(=O)N[C@@H](CC(C)C)C(=O)[C@@]1(C)CO1 | 13 | 78 |  | 210 | 353 |  |  | 75 | 0.96 | 0.94 |  |  | 56 | 
16 | COC[C@H](NC(=O)c1cc(C)on1)C(=O)N[C@@H](CC(C)C)C(=O)N[C@@H](CC(C)C)C(=O)[C@@]1(C)CO1 | 20 | 41 |  | 45 | 366 |  |  | 90 | 0.45 | 0.83 |  |  | 37 | 
17 | COC[C@H](NC(=O)c1cc(C)on1)C(=O)N[C@@H](Cc1cscn1)C(=O)N[C@@H](CC(C)C)C(=O)[C@@]1(C)CO1 | 16 | 25 |  | 17 | 367 |  |  | 100 | 0.86 | 0.85 |  |  | 39 | 
18 | COC[C@H](NC(=O)c1cc(OC)no1)C(=O)N[C@@H](COC)C(=O)N[C@@H](Cc1ccccc1)C(=O)[C@@]1(C)CO1 | 50 | 10 |  | 12 | 269 |  | 14 | 100 | 0.54 | 0.64 | 19 | 36 |  | 
19 | COC[C@H](NC(=O)c1ccon1)C(=O)N[C@@H](COC)C(=O)N[C@@H](CC(C)C)C(=O)[C@@]1(C)CO1 | 43 | 168 |  | 37 | 260 |  | 48 | 90 | 0.39 | 0.16 | 14 | 607 |  | 
